The values that follow come from patent US20230279001A1, “IMIDAZO[1,2-A]PYRIDINE COMPOUNDS FOR THE TREATMENT OF AUTOIMMUNE DISEASE” (Hoffmann-La Roche Inc., priority 2020, published 2023).

Each structure is given as a SMILES string. pIC50: −log10 of the molar value.

The target in one series is TLR9 (Homo sapiens (Human), UniProt Q9NR96). Description: HEK293-Blue-hTLR-9 cells assay. Format: cell-based. The following applies: HEK293-Blue-hTLR9 cells, ODN2006 stimulation, 20 hrs, SEAP reporter; read-out: HEK/hTLR9 IC50. From the text: A stable HEK293-Blue-hTLR-9 cell line was purchased from InvivoGen (Cat. #: hkb-htlr9, San Diego, Calif., USA). These cells were originally designed for studying the stimulation of human TLR9 by monitoring the activation of NF-κB. A SEAP (secreted embryonic alkaline phosphatase) reporter gene was placed under the control of the IFN-β minimal promoter fused to five NF-κB and AP-1-binding sites. The SEAP was induced by activating NF-κB and AP-1 via stimulating HEK-Blue hTLR9 cells with TLR9 ligands. Therefore the reporter expression was declined by TLR9 antagonist under the stimulation of a ligand, such as ODN2006 (Cat. #: tlr1-2006-1, Invivogen, San Diego, Calif., USA), for incubation of 20 hrs. The cell culture supernatant SEAP reporter activity was determined using QUANTI-Blue™ kit (Cat. #: rep-qb1, Invivogen, San Diego, Calif., USA) at a wavelength of 640 nm, a detection medium that turns purple or blue in the presence of alkaline phosphatase.
HEK293-Blue-hTLR9 cells were incubated at a density of 250,000˜450,000 cells/mL in a volume of 170 μL in a 96-well plate in Dulbecco's Modified Eagle's medium (DMEM) containing 4.5 g/L glucose, 50 U/mL penicillin, […], 2 mM L-glutamine, 10% (v/v) heat-inactivated fetal bovine serum with addition of 20 μL test compound in a serial dilution in the presence of final DMSO at 1% and 10 μL, of 20 uM ODN2006 in above DMEM, perform incubation under 37° C. in a CO2 incubator for 20 hrs. Then 20 μL of the supernatant from each well was incubated with 180 μL, Quanti-blue substrate solution at 37° C. for 2 h and the absorbance was read at 620655 nm using a spectrophotometer. The signaling pathway that TLR9 activation leads to downstream NF-κB activation has been widely accepted, and therefore similar reporter assay was modified for evaluating TLR9 antagonist.

Series [1] is described as follows: Parallel Artificial Membrane Permeability Assay (PAMPA). Format: in vitro ADME. The following applies: for Membrane Retention / Papp at 4 h: PAMPA, pH 7.40, 4 hours; for Papp at 4 h: pH 7.4, room temperature, read-out: PAMPA Pe; for PAMPA category: classified by Pe and membrane retention. As to the method:
PAMPA (Parallel Artificial Membrane Permeability Assay) is a first-line permeability screen for drug candidates. This assay mimics the transcellular absorption conditions using an artificial phospholipid membrane and generates a permeability value that can be used for compound ranking and optimization as well as input parameters for in silico models to predict intestinal absorption.
Permeation experiments are carried out in hydrophobic PVDF 96-well microtiter filter plates (MultiScreen Filter Plate, Millipore, #MAIPN4550). Each well is coated with PVDF membrane, which is prepared with 5 μL Dodecane (Sigma, D221104) that contains 1% lecithin (Sigma, P3556-1G).
The typical PAMPA experimental protocol is as follows: The donor plate is placed on a Teflon acceptor plate that has been pre-filled with […] of 100 mM PBS buffer (2.6 g KH2PO4 and 18.5 g K2HPO4·3H2O are dissolved in about 1000 mL of ultra-pure water and mixed thoroughly. The pH is adjusted to 7.40±0.05, using either 1 M sodium hydroxide or 1M hydrochloric acid) containing 5% DMSO. The filter on the bottom of each acceptor well is filled with 300 μL of 100 mM PBS buffer (2.6 g KH2PO4 and 18.5 g K2HPO4·3H2O are dissolved in about 1000 mL of ultra-pure water, mixed thoroughly. The pH was adjusted to 7.40±0.05, using either 1 M sodium hydroxide or 1M hydrochloric acid). The resulting sandwich is incubated at room temperature under constant shaking (300 rpm) for 4 hours. The sandwich is then disassembled. Before incubation, spike 20 μL dosing solution and mix with 250 μL PBS and 130 μL quench solution (acetonitrile) as TO sample. After incubation, collect 270 μL solutions from acceptor chamber, followed by the addition of 130 μL acetonitrile. Collect 20 μL solution from donor chamber and add 250 μL PBS and 130 μL acetonitrile. The concentration of compound in all samples are determined by LC-MS/MS and the equations for determining the permeability (Pe, 10^−6 cm/s) are as follows.
VD is the volume of the donor well; VR is the volume of the acceptor well; Area is the active surface area of membrane; Time is the incubation time (14,400 s in this assay); CR and CD are the concentrations of compound in acceptor and donor solutions, respectively, at the completion of the assay; C0 is the concentration of compound in donor solution before incubation.
The main readout of the PAMPA assay is the permeability value Pe expressed in 10^−6 cm/s. Secondary readouts determined are the amounts of compound in the donor and acceptor compartments as well as compound retention in the membrane. Depending on the permeation rate and the membrane retention, compounds are classified as “low” (Pe<0.2 and membrane retention<20%) or “medium & high” (Pe>=0.2; or Pe<0.2 and membrane retention>=20%). Each sample is measured in triplicate; the standard deviation is determined for the permeation constant Pe.
(In general: The PAMPA barrier holds no transporters, so it reflects passive diffusion.)

Chain of TLR9 (Q9NR96 26-1032): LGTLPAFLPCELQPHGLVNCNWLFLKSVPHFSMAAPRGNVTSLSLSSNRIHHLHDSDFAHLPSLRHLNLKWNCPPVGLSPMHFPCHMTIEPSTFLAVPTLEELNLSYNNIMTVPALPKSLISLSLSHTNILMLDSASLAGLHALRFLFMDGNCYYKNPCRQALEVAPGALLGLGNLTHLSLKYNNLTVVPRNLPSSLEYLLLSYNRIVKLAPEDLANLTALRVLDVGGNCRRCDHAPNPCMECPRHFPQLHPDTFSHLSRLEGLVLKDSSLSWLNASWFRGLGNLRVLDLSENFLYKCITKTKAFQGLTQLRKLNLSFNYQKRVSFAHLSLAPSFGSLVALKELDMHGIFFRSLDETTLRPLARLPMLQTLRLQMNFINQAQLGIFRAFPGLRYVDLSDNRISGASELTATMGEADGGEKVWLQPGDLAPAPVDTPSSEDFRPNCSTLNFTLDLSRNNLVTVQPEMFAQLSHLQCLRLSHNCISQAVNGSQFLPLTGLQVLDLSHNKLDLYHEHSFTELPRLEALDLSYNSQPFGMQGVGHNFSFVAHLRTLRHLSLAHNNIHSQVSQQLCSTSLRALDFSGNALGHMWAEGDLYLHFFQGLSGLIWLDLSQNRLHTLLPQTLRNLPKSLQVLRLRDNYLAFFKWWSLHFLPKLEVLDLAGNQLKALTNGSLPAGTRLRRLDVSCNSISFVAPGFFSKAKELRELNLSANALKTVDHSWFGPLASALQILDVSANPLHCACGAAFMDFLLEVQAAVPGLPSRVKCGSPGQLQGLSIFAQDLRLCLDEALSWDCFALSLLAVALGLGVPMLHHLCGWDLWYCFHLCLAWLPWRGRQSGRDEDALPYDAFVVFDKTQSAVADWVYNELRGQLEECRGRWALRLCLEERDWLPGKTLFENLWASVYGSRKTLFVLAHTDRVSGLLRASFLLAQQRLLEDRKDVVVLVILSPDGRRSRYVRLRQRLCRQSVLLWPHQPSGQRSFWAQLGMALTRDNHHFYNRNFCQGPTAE

For the molecule `Cc1cc(-c2ccc(N3CCC(N4CCNCC4)CC3)nc2C(C)C)cn2ccnc12` [Example 2, 6-[2-isopropyl-6-(4-piperazin-1-yl-1-piperidyl)-3-pyridyl]-8-methyl-imidazo[1,2-a]pyridine], the pIC50 at TLR9 was 6.82. In series [1], the “Membrane Retention” value was 22.73%; the Papp at 4 h is 0.87 ×10⁻⁶ cm/s; the PAMPA category entry is “medium & high (“medium & high” (Pe>=0.2; or Pe<0.2 and membrane retention>=20%))”.

For `Cc1cn2cc(-c3ccc(N4CCC(N5CCNCC5)CC4)nc3C(C)C)cc(C)c2n1` [Example 3, 6-[2-isopropyl-6-(4-piperazin-1-yl-1-piperidyl)-3-pyridyl]-2,8-dimethyl-imidazo[1,2-a]pyridine], the pIC50 on TLR9 was 6.70. In addition, in series [1], the “Membrane Retention” value is 20.3%; the Papp at 4 h was determined as 0.8 ×10⁻⁶ cm/s; the PAMPA category result is “medium & high (“medium & high” (Pe>=0.2; or Pe<0.2 and membrane retention>=20%))”.

Turning to `Cc1cn2cc(-c3ccc(N4CCC(N)CC4)nc3C(C)C)cc(C)c2n1` [Example 4, 1-[5-(2,8-dimethylimidazo[1,2-a]pyridin-6-yl)-6-isopropyl-2-pyridyl]piperidin-4-amine], on TLR9, the pIC50 was 6.81. Moreover, in series [1], the “Membrane Retention” value worked out at 17.52%; the Papp at 4 h amounted to 1.2 ×10⁻⁶ cm/s; the PAMPA category result is “medium & high (“medium & high” (Pe>=0.2; or Pe<0.2 and membrane retention>=20%))”.

Consider `Cc1cn2cc(-c3ccc(N4CCNC[C@H]4CO)nc3C(C)C)cc(C)c2n1` [Example 5, [(2S)-1-[5-(2,8-dimethylimidazo[1,2-a]pyridin-6-yl)-6-isopropyl-2-pyridyl]piperazin-2-yl]methanol], for which the pIC50 at TLR9 is 6.64. In series [1], the “Membrane Retention” value is listed as 17.82%; the Papp at 4 h is 2.1 ×10⁻⁶ cm/s; the PAMPA category entry is “medium & high (“medium & high” (Pe>=0.2; or Pe<0.2 and membrane retention>=20%))”.

`Cc1c(-c2ccc(N3CCC(N4CCNCC4)CC3)nc2C(C)C)cn2ccnc2c1C` [Example 7, 6-[2-isopropyl-6-(4-piperazin-1-yl-1-piperidyl)-3-pyridyl]-7,8-dimethyl-imidazo[1,2-a]pyridine]: the pIC50 on TLR9 is 6.95. Besides, in series [1], the “Membrane Retention” value came to 20.4%; the Papp at 4 h was found to be 1.2 ×10⁻⁶ cm/s; the PAMPA category entry was “medium & high (“medium & high” (Pe>=0.2; or Pe<0.2 and membrane retention>=20%))”.

For `Cc1cn2cc(-c3ccc(N4CCN5CCNCC5C4)nc3C(C)C)cc(C)c2n1` (stereo not drawn) [Example 8, 2-[5-(2,8-dimethylimidazo[1,2-a]pyridin-6-yl)-6-isopropyl-2-pyridyl]-1,3,4,6,7,8,9,9a-octahydropyrazino[1,2-a]pyrazine], the pIC50 at TLR9 is 6.53. In series [1], the “Membrane Retention” value is 34.49%; the Papp at 4 h worked out at 0.85 ×10⁻⁶ cm/s; the PAMPA category result was “medium & high (“medium & high” (Pe>=0.2; or Pe<0.2 and membrane retention>=20%))”.

`Cc1cc(-c2cc(C)c3nccn3c2)cnc1N1CCC(N2CCN(C)CC2)CC1` [Example 9, 8-methyl-6-[5-methyl-6-[4-(4-methylpiperazin-1-yl)-1-piperidyl]-3-pyridyl]imidazo[1,2-a]pyridine]: the pIC50 at TLR9 was 6.77. In series [1], the “Membrane Retention” value stood at 49%; the Papp at 4 h worked out at 0.88 ×10⁻⁶ cm/s; the PAMPA category entry is “medium & high (“medium & high” (Pe>=0.2; or Pe<0.2 and membrane retention>=20%))”.

For `Cc1cc(-c2ccc(N3CCC(N4CCNCC4)CC3)nc2C(F)F)cn2ccnc12` [Example 10, 6-[2-(difluoromethyl)-6-(4-piperazin-1-yl-1-piperidyl)-3-pyridyl]-8-methyl-imidazo[1,2-a]pyridine], the pIC50 at TLR9 was 6.66. In addition, in series [1], the “Membrane Retention” value turned out to be 17.7%; the Papp at 4 h came out at 0.81 ×10⁻⁶ cm/s; the PAMPA category entry was “medium & high (“medium & high” (Pe>=0.2; or Pe<0.2 and membrane retention>=20%))”.

In the case of `Cc1cn2cc(-c3ccc(N4CCC(N5CCNCC5)CC4)nc3C(F)F)cc(C)c2n1` [Example 11, 6-[2-(difluoromethyl)-6-(4-piperazin-1-yl-1-piperidyl)-3-pyridyl]-2,8-dimethyl-imidazo[1,2-a]pyridine], the pIC50 at TLR9 is 6.95. Also, in series [1], the “Membrane Retention” value is given as 9.47%; the Papp at 4 h was found to be 0.84 ×10⁻⁶ cm/s; the PAMPA category entry was “medium & high (“medium & high” (Pe>=0.2; or Pe<0.2 and membrane retention>=20%))”.

In the case of `Cc1cn2cc(-c3ccc(N4CCC(N5CC(C)(N)C5)CC4)nc3C(F)F)cc(C)c2n1` [Example 12, 1-[1-[6-(difluoromethyl)-5-(2,8-dimethylimidazo[1,2-a]pyridin-6-yl)-2-pyridyl]-4-piperidyl]-3-methyl-azetidin-3-amine], on TLR9, the pIC50 was 6.84. In series [1], the “Membrane Retention” value was determined as 7.03%; the Papp at 4 h came to 1 ×10⁻⁶ cm/s; the PAMPA category result is “medium & high (“medium & high” (Pe>=0.2; or Pe<0.2 and membrane retention>=20%))”.

In the case of `CCc1nc(N2CCC(N3CC4(CNCCO4)C3)CC2)ccc1-c1cc(C)c2nccn2c1` [Example 14, 2-[1-[6-ethyl-5-(8-methylimidazo[1,2-a]pyridin-6-yl)-2-pyridyl]-4-piperidyl]-5-oxa-2,8-diazaspiro[3.5]nonane], the pIC50 at TLR9 is 6.67.

Consider `CCc1nc(N2CCC(N3C[C@@H](N)[C@H](OC)C3)CC2)ccc1-c1cc(C)c2nccn2c1` [Example 15, (3R,4R)-1-[1-[6-ethyl-5-(8-methylimidazo[1,2-a]pyridin-6-yl)-2-pyridyl]-4-piperidyl]-4-methoxy-pyrrolidin-3-amine], for which, at TLR9, the pIC50 was 6.54.

As to `CCc1nc(N2CCC(N3C[C@@H](N)[C@H](OC)C3)CC2)ccc1-c1cc(C)c2nc(C)cn2c1` [Example 17, (3R,4R)-1-[1-[5-(2,8-dimethylimidazo[1,2-a]pyridin-6-yl)-6-ethyl-2-pyridyl]-4-piperidyl]-4-methoxy-pyrrolidin-3-amine], the pIC50 at TLR9 is 6.65.

With `CCc1nc(N2CCC(C)(N)CC2)ccc1-c1cc(C)c2nc(C)cn2c1` [Example 20, 1-[5-(2,8-dimethylimidazo[1,2-a]pyridin-6-yl)-6-ethyl-2-pyridyl]-4-methyl-piperidin-4-amine], the pIC50 at TLR9 is 6.97.

As to `COc1nc(N2CCC(N3CCNCC3)CC2)ccc1-c1cc(C)c2nccn2c1` [Example 25, 6-[2-methoxy-6-(4-piperazin-1-yl-1-piperidyl)-3-pyridyl]-8-methyl-imidazo[1,2-a]pyridine], the pIC50 on TLR9 was 7.04.
